# Key:
# IDH1 mutant (R132H) = target: T1, IDH1 mutant (R132H) (Homo sapiens, UniProt O75874, R132H); experiment: Mutant IDH1-R132H Fluorescence Assay (Resazurin based); assay type: biochemical; details: 10 nM IDH1 R132H, 4 mM α-ketoglutarate, NADPH, 1.5 h at room temperature
# T1 construct: purchased BPS Bioscience 71099-2
# Method in brief: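 Recombinant IDH1 R132H (10 nM) was run with α-ketoglutarate (4 mM) and NADPH ([…]) for 1.5 h at room temperature in Tris pH buffer with MgCl2, BSA and mercaptoethanol. Remaining NADPH was detected via diaphorase/resazurin fluorescence (ex 540/em 590 nm). IC50 came from a 4-parameter logistic fit.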
# IDH1-WT = target: T2, IDH1-WT (Homo sapiens, UniProt O75874); experiment: IDH1-WT Fluorescence Assay (Resazurin based); assay type: biochemical; details: 1 nM IDH1-WT, 200 μM isocitrate, 15 μM NADP+, 30 min at room temperature
# T2 construct: purchased BPS Bioscience 71075-2
# Experimental: IC50 values of compounds against IDH1-WT was determined by Resazurin based Fluorescence assay. Assays were performed in Buffer (50 mM Tris HCl, 10 mM MgCl2, 0.03% BSA, 2 mM ß-mercaptoethanol) where total reaction volume was 25 μL in low-volume 96-well plates. Serially diluted compounds (3-fold) in DMSO (0.5% in final reaction) were incubated with cocktail of isocitrate (200 μM; Cat # I1252-1G, Sigma), NADP^+ (15 μM; Cat # N0505-500MG, Sigma) and buffer for 5 min, following addition of IDH1-WT enzyme (1 nM; Cat #71075-2, BPS Bioscience) and incubated in dark at room temperature for 30 min. After that, 12.5 μL detection solution containing Resazurin (60 μM; Cat #62758-13-8, Sigma) and Diaphorase (40 μg/ml; Cat # D2197-300UN, Sigma) in buffer was added and incubated for 15 min. Readings were taken using a Synergy Neo Plate reader (BioTek, Winooski) at single excitation of 540 nm and emission at 590 nm respectively.
# The % (percent) activity of test samples was calculated as (Sample−Min)×100/(Max−Min). [Max: DMSO control, complete reaction with enzyme with DMSO and Min: No enzyme with DMSO]. Percent inhibition (100−% activity) was fitted to the “four-parameter logistic model” in XLfit for determination of IC50 values.
# IDH2 mutant (R140Q) = target: T3, IDH2 mutant (R140Q) (Homo sapiens, UniProt P48735, R140Q); experiment: Mutant IDH2-R140Q Fluorescence Assay (Resazurin based); assay type: biochemical; details: 5 nM IDH2 R140Q, 4 hr pre-incubation, 1 mM α-ketoglutarate, 5 μM NADPH, 2 h
# T3 construct: purchased BPS Bioscience 71100-2
# T3 sequence (P48735 40-452 R140Q): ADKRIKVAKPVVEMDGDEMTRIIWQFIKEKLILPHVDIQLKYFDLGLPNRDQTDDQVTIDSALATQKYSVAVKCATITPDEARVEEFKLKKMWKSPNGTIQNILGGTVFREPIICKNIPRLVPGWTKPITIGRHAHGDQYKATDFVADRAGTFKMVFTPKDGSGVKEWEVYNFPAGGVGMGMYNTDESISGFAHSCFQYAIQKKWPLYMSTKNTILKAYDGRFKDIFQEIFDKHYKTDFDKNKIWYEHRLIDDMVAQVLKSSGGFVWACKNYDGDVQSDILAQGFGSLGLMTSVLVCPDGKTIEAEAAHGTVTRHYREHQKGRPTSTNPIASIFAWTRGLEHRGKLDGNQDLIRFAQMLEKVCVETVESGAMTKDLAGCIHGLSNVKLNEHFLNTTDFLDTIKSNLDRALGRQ
# Experimental: IC50 values of compounds against IDH2 mutant (R140Q) were determined by Resazurin based Fluorescence assay. Assay was performed in Buffer (25 mM Tris HCl, 150 mM NaCl, 10 mM MgCl2, 0.03% BSA, 2 mM 1-mercaptoethanol) where total reaction volume was 12.5 μL in low-volume 384-well plates (Cat #4511, Corning). Serially diluted compounds (3-fold) were pre-incubated with IDH2 R140Q mutant enzyme (5 nM; Cat #71100-2, BPS Bioscience) for 4 hr at RT (25° C.) followed by addition of cocktail of α-ketoglutarate (1 mM; Cat #75892-25G, Sigma), and NADPH (5 μM; Cat # N1630-100MG, Sigma) with buffer in dark at room temperature for 2 h. After 2 h incubation, 6.25 μL detection solution containing Resazurin (30 μM; (Cat #62758-13-8, Sigma) and Diaphorase (40 ug/ml; Cat # D2197-300UN, Sigma) in buffer was added and incubated for 15 min. Readings were taken in a Synergy Neo Plate reader (BioTek, Winooski) at single excitation of 540 nm and emission at 590 nm respectively.
# (§1) The % activity of test samples was calculated as (Sample−Min)×100/(Max−Min). [Max: DMSO control, complete reaction with enzyme with DMSO and Min: No enzyme with DMSO]. Percent inhibition (100−% activity) was fitted to the “four-parameter logistic model” in XLfit for determination of IC50 values.
# [1] = target: T4, mutant IDH1 (R132C) HT1080 cells (Homo sapiens, UniProt O75874, R132C); experiment: Cellular 2-HG assay using mutant IDH1 (R132C) HT1080 cells; assay type: cell-based; details: 48 h treatment, 0.003 to 3 μM, 2-HG in cell culture media
# T4 construct: host or cells: HT1080
# Experimental: HT1080 (ATCC® CCL-121™) cells were plated in a 12 well plate (Nunc™ Cell-Culture Treated Multidish; Cat #150628) at a cell density of 5×10^4 cells/well. Cells were then treated with various concentrations of test/reference compounds (ranging from 0.003 to 3 μM) or vehicle for 48 h under cell culture conditions (in CO2 incubator, 5% CO2, 37° C.). Metabolites were extracted from cell culture media by precipitation method and IC50 values of compounds were determined by Resazurin based Fluorescence assay. Assay buffer contained 100 mM HEPES pH 8.0, 100 μM NAD^+ (Sigma; Cat # N1630-100MG), […] HGDH, 5 μM resazurin (Cat #62758-13-8, Sigma) and 0.01 U/ml diaphorase (Cat # D2197-300UN, Sigma). Total assay volume was 100 μl. 75 μl of assay buffer was added to 25 μl sample volume (supernatant) and incubated at RT in the dark for 30 min in black 96-well plates (Thermo Scientific). Fluorometric detection was done using a Synergy Neo Plate reader (BioTek, Winooski) at single excitation of 540 nm and emission at 590 nm respectively).
# as §1
# T2 sequence (O75874 whole entry): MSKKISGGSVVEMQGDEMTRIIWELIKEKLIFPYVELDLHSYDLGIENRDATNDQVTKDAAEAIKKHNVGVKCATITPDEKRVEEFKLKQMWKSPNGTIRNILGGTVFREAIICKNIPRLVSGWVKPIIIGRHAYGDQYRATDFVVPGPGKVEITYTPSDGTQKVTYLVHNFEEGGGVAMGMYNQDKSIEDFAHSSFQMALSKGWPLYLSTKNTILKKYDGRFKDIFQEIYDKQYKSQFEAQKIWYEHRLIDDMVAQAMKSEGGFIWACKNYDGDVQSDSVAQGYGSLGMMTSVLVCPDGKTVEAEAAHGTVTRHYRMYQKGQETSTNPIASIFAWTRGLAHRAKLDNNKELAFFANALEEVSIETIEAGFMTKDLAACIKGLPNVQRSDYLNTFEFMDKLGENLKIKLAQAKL
# T1 sequence (O75874 whole entry R132H): as the sequence (O75874 whole entry) above, with R132H counted along it
# T4 sequence (O75874 2-414 R132C limits assumed): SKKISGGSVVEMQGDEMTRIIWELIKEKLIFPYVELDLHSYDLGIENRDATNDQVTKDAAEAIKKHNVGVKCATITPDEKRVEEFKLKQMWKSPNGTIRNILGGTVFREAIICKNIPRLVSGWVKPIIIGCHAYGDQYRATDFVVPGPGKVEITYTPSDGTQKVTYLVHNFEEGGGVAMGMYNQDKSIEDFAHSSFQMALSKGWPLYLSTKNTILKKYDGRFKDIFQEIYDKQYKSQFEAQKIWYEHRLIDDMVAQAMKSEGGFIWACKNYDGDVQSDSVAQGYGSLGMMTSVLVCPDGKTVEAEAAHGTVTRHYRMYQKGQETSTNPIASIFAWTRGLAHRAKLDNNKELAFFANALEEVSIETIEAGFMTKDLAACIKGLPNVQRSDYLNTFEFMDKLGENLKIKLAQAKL
Structure (SMILES),IC50 (IDH1 mutant (R132H)) [nM],IC50 (IDH1-WT) [nM],IC50 (IDH2 mutant (R140Q)) [nM],IC50 [1] [nM]
"CC[C@H]1COC(=O)N1c1nc(C)nc(N[C@@H](C)c2cc3cc(Cl)c(OC)cc3[nH]c2=O)n1 [Compound 1.42, (S)-3-(4-((S)-1-(6-chloro-7-methoxy-2-oxo-1,2-dihydroquinolin-3-yl)ethylamino)-6-methyl-1,3,5-triazin-2-yl)-4-ethyloxazolidin-2-one]",84,> 50000,> 50000,556
"Cc1nc(N[C@@H](C)c2ccc(Oc3ccccc3)cc2)nc(N2C(=O)OC[C@@H]2[C@H](C)F)n1 [Compound 1.64, (R)-4-((S)-1-fluoroethyl)-3-(4-methyl-6-((S)-1-(4-phenoxyphenyl)ethylamino)-1,3,5-triazin-2-yl)oxazolidin-2-one]",227,> 50000,> 50000,36
"CC[C@H]1COC(=O)N1c1nc(C)nc(N[C@@H](C)c2cn(-c3ccc(Cl)cc3)cn2)n1 [Compound 1.50, (S)-3-(4-((S)-1-(1-(4-chlorophenyl)-1H-imidazol-4-yl)ethylamino)-6-methyl-1,3,5-triazin-2-yl)-4-ethyloxazolidin-2-one]",456,> 50000,> 50000,413
"CC[C@H]1COC(=O)N1c1nc(C)nc(N[C@@H](C)c2cc3cc(Cl)c(OC(C)C)cc3[nH]c2=O)n1 [Compound 1.104, (S)-3-(4-((S)-1-(6-chloro-7-isopropoxy-2-oxo-1,2-dihydroquinolin-3-yl)ethylamino)-6-methyl-1,3,5-triazin-2-yl)-4-ethyloxazolidin-2-one]",75,> 50000,> 50000,94
"Cc1nc(N[C@@H](C)c2cc3cc(Cl)ccc3[nH]c2=O)nc(N2C(=O)OC[C@@H]2[C@H](C)F)n1 [Compound 1.59, (R)-3-(4-((S)-1-(6-chloro-2-oxo-1,2-dihydroquinolin-3-yl)ethylamino)-6-methyl-1,3,5-triazin-2-yl)-4-((S)-1-fluoroethyl) oxazolidin-2-one]",178,> 50000,> 50000,271
"CC[C@H]1COC(=O)N1c1nc(C)nc(N[C@@H](C)c2ccc(Oc3ccccc3)cc2)n1 [Compound 1.44, (S)-4-ethyl-3-(4-methyl-6-((S)-1-(4-phenoxyphenyl)ethylamino)-1,3,5-triazin-2-yl)oxazolidin-2-one]",209,> 50000,> 50000,168
"CC[C@H]1COC(=O)N1c1nc(C)nc(N[C@@H](C)c2cc3cc(Cl)ccc3[nH]c2=O)n1 [Compound 1.38, (S)-3-(4-((S)-1-(6-chloro-2-oxo-1,2-dihydroquinolin-3-yl)ethylamino)-6-methyl-1,3,5-triazin-2-yl)-4-ethyloxazolidin-2-one]",144,> 50000,> 50000,634
"CC[C@H]1COC(=O)N1c1nc(C)nc(N[C@@H](C)c2cc3cc(Br)ccc3[nH]c2=O)n1 [Compound 1.66, (S)-3-(4-((S)-1-(6-bromo-2-oxo-1,2-dihydroquinolin-3-yl)ethylamino)-6-methyl-1,3,5-triazin-2-yl)-4-ethyloxazolidin-2-one]",328,> 50000,> 50000,–
"CC[C@H]1COC(=O)N1c1nc(C)nc(N[C@@H](C)c2ccc(Oc3ccccc3)cn2)n1 [Compound 1.75, (S)-4-ethyl-3-(4-methyl-6-((S)-1-(5-phenoxypyridin-2-yl)ethylamino)-1,3,5-triazin-2-yl)oxazolidin-2-one]",832,> 50000,> 50000,–
"CC[C@H]1COC(=O)N1c1nc(C)nc(N[C@@H](C)c2ccc(Oc3ccc(F)cc3)cc2)n1 [Compound 1.58, (S)-4-ethyl-3-(4-((S)-1-(4-(4-fluorophenoxy)phenyl)ethylamino)-6-methyl-1,3,5-triazin-2-yl)oxazolidin-2-one]",308,> 50000,> 50000,–
